Source: patent US4248887A, “Antibacterial compounds, processes for their preparation and compositions containing them” (priority 1978, dated 1981)
≈ marks a conversion by molar mass, not a printed value.

What was measured:
Staph. aureus Oxford = test: MIC by serial dilution in nutrient agar (human bacteria); details: Staphylococcus aureus
M. pneumoniae 427a = test: Anti-mycoplasma MIC; assay type: cell-based; details: Mycoplasmoides pneumoniae
Strep. agalactiae SPA1 = test: MIC against veterinary bacteria; details: Streptococcus agalactiae
Strep. pyogenes A 64/848 = test: MIC by serial dilution in nutrient agar (human bacteria); details: Streptococcus pyogenes, A64/848
[1] = tested on: Staph. aureus B4 (pen resistant); test: MIC against veterinary bacteria; details: Staphylococcus aureus
[2] = tested on: M. alkalescens NCTC 10135; test: Anti-mycoplasma MIC; assay type: cell-based
[3] = tested on: M. hyosynoviae ATCC 25591; test: Anti-mycoplasma MIC; assay type: cell-based
N. catarrhalis 1502 = test: MIC by serial dilution in nutrient agar (human bacteria); details: Neisseria
M. dispar H225 = test: Anti-mycoplasma MIC; assay type: cell-based
M. fermentans MWKL4 = test: Anti-mycoplasma MIC; assay type: cell-based; details: Mycoplasmopsis fermentans
[4] = tested on: M. bovigenitalium ATCC 14173; test: Anti-mycoplasma MIC; assay type: cell-based
B. subtilis = test: MIC by serial dilution in nutrient agar (human bacteria); details: Bacillus subtilis
M. bovis ATCC 25025 = test: microbe, parasite or virus in culture; assay type: cell-based; details: ATCC25025
M. dispar NCTC 10125 = test: Anti-mycoplasma MIC; assay type: cell-based
Strep. pyogenes B 2788 = test: MIC by serial dilution in nutrient agar (human bacteria); details: Streptococcus pyogenes, B2788
[5] = tested on: M. suipneumoniae J2206/183b; test: Anti-mycoplasma MIC; assay type: cell-based; details: Mesomycoplasma hyopneumoniae, J2206/183B
M. gallisepticum S6 = test: Anti-mycoplasma MIC; assay type: cell-based; details: Mycoplasmoides gallisepticum, S6
Strep. pyogenes C 2761 = test: MIC by serial dilution in nutrient agar (human bacteria); details: Streptococcus pyogenes, C2761
Bord. bronchiseptica BO9 = test: MIC against veterinary bacteria; details: Bordetella bronchiseptica
Past. multocida 1633 = test: MIC by serial dilution in nutrient agar (human bacteria); details: Pasteurella multocida
Staph. aureus Russell = test: as above; details: Staphylococcus aureus
Past. multocida PA1 = test: MIC against veterinary bacteria; details: Pasteurella multocida
Strep. pneumoniae CN33 = test: MIC by serial dilution in nutrient agar (human bacteria); details: Streptococcus pneumoniae
M. pneumoniae ATCC 15492 = test: Anti-mycoplasma MIC; assay type: cell-based; details: Mycoplasmoides pneumoniae, ATCC15492, M. pneumoniae ATCC 15492
Strep. dysgalactiae SPD1 = test: MIC against veterinary bacteria; details: Streptococcus dysgalactiae
Staph. aureus 1517 = test: MIC by serial dilution in nutrient agar (human bacteria); assay type: cell-based; details: Staphylococcus aureus
M. bovis NCTC 10131 = test: microbe, parasite or virus in culture; assay type: cell-based; details: NCTC10131
H. influenzae Q1 = test: MIC by serial dilution in nutrient agar (human bacteria); details: Haemophilus influenzae
Past. haemolytica PA5 = test: MIC against veterinary bacteria; details: Mannheimia haemolytica
M. hyorhinis ATCC 23234 = test: Anti-mycoplasma MIC; assay type: cell-based; details: Mesomycoplasma hyorhinis, ATCC23234
Strep. uberis SPU1 = test: MIC against veterinary bacteria; details: Streptococcus uberis
M. suipneumoniae Str. 11 = test: Anti-mycoplasma MIC; assay type: cell-based; details: Mesomycoplasma hyopneumoniae, STR.11
H. influenzae Wy21 = test: MIC by serial dilution in nutrient agar (human bacteria); details: Haemophilus influenzae
Past. multocida PA2 = test: MIC against veterinary bacteria; details: Pasteurella multocida
M. pulmonis JB = test: Anti-mycoplasma MIC; assay type: cell-based; details: Mycoplasmopsis pulmonis
[6] = tested on: M. arthritidis ATCC 14124; test: Anti-mycoplasma MIC; assay type: cell-based
Bord. bronchiseptica BO8 = test: MIC against veterinary bacteria; details: Bordetella bronchiseptica
M. synoviae ATCC 25204 = test: Anti-mycoplasma MIC; assay type: cell-based; details: Mycoplasmopsis synoviae, ATCC25204
[7] = Agar (serial dilution in Friis' agar)
[8] = Broth (Friis' broth, microtiter method)

Compound `CCOC(=O)/C=C(\C)CC1OCC(C/C=C/C(C)C(C)O)C(O)C1O` (stereo not drawn) [Ethyl, Ethyl Monate C] has an MIC (Staph. aureus Oxford) of 0.2 µg/mL (≈ 0.561 µM), an MIC (M. pneumoniae 427a; [7]) of 5 µg/mL (≈ 14 µM) and an MIC (M. pneumoniae 427a; [8]) of 10 µg/mL (≈ 28.1 µM). For the same compound, the MIC (Strep. agalactiae SPA1) was 20 µg/mL (≈ 56.1 µM), the MIC (Strep. pyogenes A 64/848) was 10 µg/mL (≈ 28.1 µM) and the MIC [1] was 1.25 µg/mL (≈ 3.51 µM). It also gave an MIC [2] of 0.039 µg/mL (≈ 0.109 µM), an MIC [3] of 1.25 µg/mL (≈ 3.51 µM) and an MIC (N. catarrhalis 1502) of 0.2 µg/mL (≈ 0.561 µM). For the same compound, the MIC (M. dispar H225) was 0.078 µg/mL (≈ 0.219 µM), the MIC (M. fermentans MWKL4; [7]) was 0.312 µg/mL (≈ 0.875 µM) and the MIC (M. fermentans MWKL4; [8]) was 0.156 µg/mL (≈ 0.438 µM). For the same compound, the MIC [4] was 0.078 µg/mL (≈ 0.219 µM), the MIC (B. subtilis) was 1 µg/mL (≈ 2.81 µM) and the MIC (M. bovis ATCC 25025) was 0.156 µg/mL (≈ 0.438 µM). It also gave an MIC (M. dispar NCTC 10125) of 0.156 µg/mL (≈ 0.438 µM), an MIC (Strep. pyogenes B 2788) of 0.5 µg/mL (≈ 1.4 µM) and an MIC [5] of 10 µg/mL (≈ 28.1 µM). For the same compound, the MIC (M. gallisepticum S6) was over 10 µg/mL, the MIC (Strep. pyogenes C 2761) was 5 µg/mL (≈ 14 µM) and the MIC (Bord. bronchiseptica BO9) was 40 µg/mL (≈ 112 µM). For the same compound, the MIC (Past. multocida 1633) was 5 µg/mL (≈ 14 µM), the MIC (Staph. aureus Russell) was 0.2 µg/mL (≈ 0.561 µM) and the MIC (Past. multocida PA1) was 5 µg/mL (≈ 14 µM). The MIC (Strep. pneumoniae CN33) was 2.5 µg/mL (≈ 7.01 µM), the MIC (M. pneumoniae ATCC 15492; [7]) was 5 µg/mL (≈ 14 µM) and the MIC (M. pneumoniae ATCC 15492; [8]) was 10 µg/mL (≈ 28.1 µM). For the same compound, the MIC (Strep. dysgalactiae SPD1) was 20 µg/mL (≈ 56.1 µM), the MIC (Staph. aureus 1517) was 0.2 µg/mL (≈ 0.561 µM) and the MIC (M. bovis NCTC 10131) was 0.156 µg/mL (≈ 0.438 µM). The MIC (H. influenzae Q1) was 0.2 µg/mL (≈ 0.561 µM), the MIC (Past. haemolytica PA5) was 40 µg/mL (≈ 112 µM) and the MIC (M. hyorhinis ATCC 23234) was 2.5 µg/mL (≈ 7.01 µM). The MIC (Strep. uberis SPU1) was 5 µg/mL (≈ 14 µM), the MIC (M. suipneumoniae Str. 11) was 1.25 µg/mL (≈ 3.51 µM) and the MIC (H. influenzae Wy21) was 1 µg/mL (≈ 2.81 µM). For the same compound, the MIC (Past. multocida PA2) was 5 µg/mL (≈ 14 µM), the MIC (M. pulmonis JB; [7]) was 0.039 µg/mL (≈ 0.109 µM) and the MIC (M. pulmonis JB; [8]) was 0.156 µg/mL (≈ 0.438 µM). For the same compound, the MIC [6] was over 10 µg/mL, the MIC (Bord. bronchiseptica BO8) was over 80 µg/mL and the MIC (M. synoviae ATCC 25204) was 0.039 µg/mL (≈ 0.109 µM).
